Columns and labels:
[1] = system: MDA468 breast tumor cells; assay: In vitro cell growth assay (MTS), MDA468; type: cell-based, human; conditions: three days after drug treatment
Method: (§1) Cell lines used were human adenocarcinoma (LoVo), […], prostate (LNCap), breast (MDA468, MCF7), colon (HCT116), renal (HTB44 A498), and ovarian (OVCAR3) tumor cell lines. The tumor cells were plated in 96-well culture plates at approximately 3000 cells per well. One day following plating, various concentrations of inhibitors in DMSO were added to cells (final DMSO concentration in cell assays was 0.25%). Three days after drug treatment, viable cell densities were determined by cell mediated metabolic conversion of the dye MTS, a well-established indicator of cell proliferation in vitro. Cell growth assays were performed using kits purchased from Promega Corporation (Madison, Wis.), following the protocol provided by the vendor. Measuring absorbance at 490 nm generated MTS assay results. Compound effect on cell proliferation was assessed relative to untreated control cell growth.

PI3Kα = PI3Kα (Homo sapiens, UniProt P42336); assay: PI3Kα fluorescence polarization assay; type: biochemical; conditions: 20 μM PIP2, 25 μM ATP
Sequence of PI3Kα (P42336 whole entry, species assumed): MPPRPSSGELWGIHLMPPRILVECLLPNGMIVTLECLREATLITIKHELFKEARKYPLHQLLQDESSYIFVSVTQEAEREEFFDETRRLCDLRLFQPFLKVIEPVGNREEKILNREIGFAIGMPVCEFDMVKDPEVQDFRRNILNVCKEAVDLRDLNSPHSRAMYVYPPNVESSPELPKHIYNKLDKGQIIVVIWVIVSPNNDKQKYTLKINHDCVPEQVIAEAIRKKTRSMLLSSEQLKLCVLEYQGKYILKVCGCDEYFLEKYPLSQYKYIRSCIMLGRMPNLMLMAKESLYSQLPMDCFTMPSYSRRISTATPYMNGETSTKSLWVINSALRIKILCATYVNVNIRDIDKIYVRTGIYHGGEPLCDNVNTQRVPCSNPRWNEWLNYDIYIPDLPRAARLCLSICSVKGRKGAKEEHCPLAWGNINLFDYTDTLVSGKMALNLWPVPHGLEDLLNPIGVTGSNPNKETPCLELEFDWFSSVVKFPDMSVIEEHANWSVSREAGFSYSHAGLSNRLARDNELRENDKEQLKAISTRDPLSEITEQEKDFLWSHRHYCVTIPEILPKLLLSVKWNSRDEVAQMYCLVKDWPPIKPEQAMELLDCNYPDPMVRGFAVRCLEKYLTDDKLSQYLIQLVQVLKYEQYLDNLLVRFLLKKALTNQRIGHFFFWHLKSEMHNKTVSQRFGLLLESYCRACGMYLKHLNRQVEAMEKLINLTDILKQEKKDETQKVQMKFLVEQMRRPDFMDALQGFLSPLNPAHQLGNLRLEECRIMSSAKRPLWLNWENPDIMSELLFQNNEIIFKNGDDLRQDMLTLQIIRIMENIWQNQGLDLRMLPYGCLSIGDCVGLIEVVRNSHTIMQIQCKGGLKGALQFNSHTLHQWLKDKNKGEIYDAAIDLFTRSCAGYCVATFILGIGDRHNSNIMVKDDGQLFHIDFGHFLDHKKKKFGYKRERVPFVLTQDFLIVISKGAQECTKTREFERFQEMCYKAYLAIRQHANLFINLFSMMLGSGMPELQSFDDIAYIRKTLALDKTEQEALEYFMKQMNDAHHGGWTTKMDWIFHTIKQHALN
Sequence of PI3Kα (P27986 whole entry partner, species assumed): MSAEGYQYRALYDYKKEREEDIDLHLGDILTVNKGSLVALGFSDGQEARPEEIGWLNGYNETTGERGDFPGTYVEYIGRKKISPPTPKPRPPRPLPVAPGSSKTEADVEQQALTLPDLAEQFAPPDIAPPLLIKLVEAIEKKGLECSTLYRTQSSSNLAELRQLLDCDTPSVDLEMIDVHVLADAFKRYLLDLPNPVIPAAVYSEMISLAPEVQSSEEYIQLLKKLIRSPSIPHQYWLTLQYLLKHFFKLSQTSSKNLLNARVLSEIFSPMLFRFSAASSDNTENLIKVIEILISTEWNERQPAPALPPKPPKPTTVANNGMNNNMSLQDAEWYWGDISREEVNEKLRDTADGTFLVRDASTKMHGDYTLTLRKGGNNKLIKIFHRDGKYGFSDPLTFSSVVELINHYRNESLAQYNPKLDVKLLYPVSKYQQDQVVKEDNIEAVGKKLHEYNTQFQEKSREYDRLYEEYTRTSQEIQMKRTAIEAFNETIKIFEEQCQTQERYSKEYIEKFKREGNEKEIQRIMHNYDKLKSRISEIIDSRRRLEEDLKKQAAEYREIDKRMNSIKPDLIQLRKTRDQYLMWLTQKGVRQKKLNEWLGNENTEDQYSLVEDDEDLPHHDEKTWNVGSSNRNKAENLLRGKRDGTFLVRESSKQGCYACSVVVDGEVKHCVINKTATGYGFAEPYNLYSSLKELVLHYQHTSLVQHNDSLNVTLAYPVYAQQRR
Method: The reaction buffer was 20 mM HEPES pH7.5, 2 mM MgCl2, 0.05% CHAPS, and 0.01% βME (added fresh). The substrate solution was 40 μM PIP2 (diC8, Echelon, Salt Lake City Utah cat #P-4508, 1 mM in water) and 50 μM ATP in the reaction buffer. Nunc 384-well black polypropylene fluorescent plates were used for PI3K assays. The assay is run by putting 9.5 μl of freshly diluted enzyme in the reaction buffer per well, adding 0.5 μl of diluted drug or DMSO, and mixing. Then 10 μl of the substrate solution is added to each well to start the reaction. A final concentration of 20 μM PIP2 and 25 μM ATP in the reaction was used. Reactions were allowed to proceed for 30-60 minutes at room temperature. After 30-60 minutes, 20 μl of a solution of 10 nM TAMRA detector (Red detector probe-Echelon) and 2.5 uM of GST-murine GRP (1.5 mg/ml in 17% glycerol) was added per well to stop the reaction. The resulting solution was mixed well and allowed to stand for 90-110 minutes before reading plate. Assay Plates were read on Perkin-Elmer Envision plate readers with appropriate filters for Tamra [BODIPY-TMRI(1,3,4,5)P4]. Data obtained were used to calculate enzymatic activity and enzyme inhibition by inhibitor compounds. It is important to keep Red probe solutions dark. This procedure is adapted from Echelon Biosciences Inc procedure for their PI3-Kinase fluorescence polarization activity Assay kit Product number K-1100.

human TOR (FLAG-TOR) = human TOR (FLAG-TOR) (Homo sapiens, UniProt P42345); assay: mTOR enzyme assay (DELFIA format, purified enzyme); type: biochemical; conditions: 800 ng/ml FLAG-TOR, 100 μM ATP, 1.25 μM His6-S6K; read-out: mTOR Kinase IC50
[2] = system: LNCap prostate tumor cells; assay: In vitro cell growth assay (MTS), LNCap; type: cell-based, human; conditions: three days after drug treatment
Method: as §1

Row | SMILES | IC50 ([1]; Homo sapiens, 72 h) [µM] | IC50 (PI3Kα) [µM] | IC50 (human TOR (FLAG-TOR)) [nM] | IC50 ([2]; Homo sapiens, LNCaP, 72 h) [µM] | IC50 [1] [µM] | IC50 [2] [µM]
1 | O=c1cc(Oc2ccc(C(F)(F)F)cc2)c2ccccc2[nH]1 | > 60 | 2.31 | > 20000 | > 60 | – | –
2 | O=c1cc(Oc2cccc([N+](=O)[O-])c2)c2ccccc2[nH]1 | > 60 | > 10 | 2250 | > 60 | – | –
3 | Cc1ccccc1Oc1cc(=O)[nH]c2ccccc12 | > 60 | 7.91 | 2000 | 8 | – | –
4 | O=c1cc(Oc2ccccc2)c2ccc(-c3cn[nH]c3)cc2[nH]1 | > 60 | 2.76 | > 20000 | > 60 | – | –
5 | CN1CCC(Nc2cccc(Oc3cc(=O)[nH]c4ccccc34)c2)CC1 | 12 | > 10 | 320 | 6 | – | –
6 | O=c1cc(Oc2cccc(-c3cccc(NCc4cccnc4)c3)c2)c2ccccc2[nH]1 | 28 | > 10 | 510 | 8 | – | –
7 | O=c1cc(Oc2cccc(-c3cccnc3)c2)c2ccccc2[nH]1 | 20 | 3.66 | 430 | 7 | – | –
8 | O=c1cc(Oc2ccccc2)c2cc(Cl)ccc2[nH]1 | > 60 | 5.14 | 6750 | 13 | – | –
9 | O=c1cc(Oc2cccc(-c3ccncc3)c2)c2ccccc2[nH]1 | 60 | > 10 | 370 | 7 | – | –
10 | O=c1cc(Oc2cccc(NCc3cccnc3Cl)c2)c2ccccc2[nH]1 [drawing 217] | – | > 10 | 150 | – | 10 | 4.2
11 | O=c1cc(Oc2cccc(Br)c2)c2ccccc2[nH]1 | > 60 | > 10 | 110 | 60 | – | –
12 | O=c1cc(Oc2ccc(OC(F)F)cc2)c2ccccc2[nH]1 | > 60 | > 10 | 1040 | 5.5 | – | –
13 | COC(=O)c1cc(Oc2cc(=O)[nH]c3ccccc23)ccc1OC | > 60 | > 10 | 1280 | 7.9 | – | –
14 | O=c1cc(Oc2ccc(-c3ccccc3)cc2)c2ccccc2[nH]1 | > 60 | 0.938 | > 20000 | > 60 | – | –
15 | O=c1cc(Oc2cccc(-c3cnn(CCN4CCOCC4)c3)c2)c2ccccc2[nH]1 | 10 | > 10 | 140 | 2.2 | – | –
16 | O=c1cc(Oc2ccc(OC(F)(F)F)cc2)c2ccccc2[nH]1 | > 60 | > 10 | > 20000 | > 60 | – | –
17 | O=c1cc(Oc2cccc(-c3ccc(N4CCOCC4)cc3)c2)c2ccccc2[nH]1 | 35 | 10.4 | 490 | 13 | – | –
18 | Nc1ccc(-c2cccc(Oc3cc(=O)[nH]c4ccccc34)c2)cc1 | 30 | 9.52 | 290 | 11 | – | –
19 | O=c1cc(Oc2cccc(NCc3cccs3)c2)c2ccccc2[nH]1 | > 60 | > 10 | 80 | 5.4 | – | –
20 | CN(C)c1ccc(CNc2cccc(Oc3cc(=O)[nH]c4ccccc34)c2)cn1 | > 60 | 4.55 | 160 | > 60 | – | –
21 | O=c1cc(Oc2cccc(NCc3ccncc3)c2)c2ccccc2[nH]1 | 10 | > 10 | 150 | 5 | – | –
22 | COc1ccc(CNc2cccc(Oc3cc(=O)[nH]c4ccccc34)c2)cn1 | 12 | 4.07 | 310 | 4.1 | – | –

Row | SMILES | IC50 ([1]; Homo sapiens, 72 h) [µM] | IC50 (PI3Kα) [µM] | IC50 (human TOR (FLAG-TOR)) [nM] | IC50 ([2]; Homo sapiens, LNCaP, 72 h) [µM] | IC50 [1] [µM] | IC50 [2] [µM]
23 | CS(=O)(=O)Nc1cccc(-c2cccc(Oc3cc(=O)[nH]c4ccccc34)c2)c1 | 18 | 3.55 | 580 | 6.5 | – | –
24 | O=c1cc(Oc2ccc(-c3ccoc3)cc2)c2ccccc2[nH]1 | > 60 | 1.94 | > 20000 | > 60 | – | –
25 | O=c1cc(Oc2cccc(OC(F)(F)F)c2)c2ccccc2[nH]1 | 60 | 8 | 750 | 7 | – | –
26 | O=c1cc(Oc2ccc3c(c2)OCO3)c2ccccc2[nH]1 | > 60 | > 10 | 1500 | > 60 | – | –
27 | O=c1cc(Oc2ccccc2)c2ccccc2[nH]1 | 60 | 24.1 | 370 | 8.88 | – | –
28 | CC(C)(C)OCNC(=O)c1cccc(-c2cccc(Oc3cc(=O)[nH]c4ccccc34)c2)c1 | > 60 | > 10 | 2380 | 6.6 | – | –
29 | O=C(NCCN1CCOCC1)Nc1ccc(-c2cccc(Oc3cc(=O)[nH]c4ccccc34)c2)cc1 | 25 | > 10 | 220 | 7 | – | –
30 | CC(=O)Nc1ccc2[nH]c(=O)cc(Oc3ccccc3)c2c1 | > 60 | > 10 | > 20000 | > 60 | – | –
31 | O=c1cc(Oc2cccc(-c3cn[nH]c3)c2)c2ccccc2[nH]1 | 2.9 | 3.9 | 300 | 8 | – | –
32 | N#C[BH2-][n+]1cccc(CNc2cccc(Oc3cc(=O)[nH]c4ccccc34)c2)c1 | 4.2 | 7.38 | 30 | 2.3 | – | –
33 | O=c1cc(Oc2cccc(NCc3ccccc3N3CCOCC3)c2)c2ccccc2[nH]1 | 24 | 5.62 | 330 | 9 | – | –
34 | CC(C)(C)OC(=O)N1CCN(c2ccc(-c3cccc(Oc4cc(=O)[nH]c5ccccc45)c3)cc2)CC1 | 44 | 9.89 | 5850 | 60 | – | –
35 | O=c1cc(Oc2cccc(-c3ccc(NCCN4CCCC4)cc3)c2)c2ccccc2[nH]1 | 4.5 | > 10 | 180 | 3.05 | – | –
36 | Cn1cc(CNc2cccc(Oc3cc(=O)[nH]c4ccccc34)c2)cn1 | 8.8 | 4.79 | 170 | 4 | – | –
37 | O=c1cc(Oc2cccc(-c3ccc(Cl)nc3)c2)c2ccccc2[nH]1 | > 60 | > 10 | > 20000 | > 60 | – | –
38 | CN1CCC(Nc2ccc(-c3cccc(Oc4cc(=O)[nH]c5ccccc45)c3)cc2)CC1 | 5 | 8 | 50 | 2.8 | – | –
39 | O=c1cc(Oc2ccc(-c3ccc(NCCN4CCOCC4)nc3)cc2)c2ccccc2[nH]1 | 8 | > 10 | 1080 | 1.05 | – | –
40 | CN1CCN(c2ccc(-c3cccc(Oc4cc(=O)[nH]c5ccccc45)c3)cn2)CC1 | 9 | > 10 | 210 | 4 | – | –
41 | CN(C)CCCOc1ccc(-c2cccc(Oc3cc(=O)[nH]c4ccccc34)c2)cn1 | 10 | > 10 | 80 | 3.8 | – | –
42 | COc1cccc(Oc2cc(=O)[nH]c3ccccc23)c1 | 60 | > 10 | 300 | 9.3 | – | –
43 | O=c1cc(Oc2cccc(-c3ccc(NCCN4CCOCC4)nc3)c2)c2ccccc2[nH]1 | 2 | 6.79 | 150 | 4.7 | – | –
44 | NC(=O)c1ccc(Oc2cc(=O)[nH]c3ccccc23)cc1 | 23 | > 10 | 1830 | > 60 | – | –

From patent publication US20100068204A1, “4-ARYLOXYQUINOLIN-2(1H)-ONES AS MTOR KINASE AND PI3 KINASE INHIBITORS, FOR USE AS ANTI-CANCER AGENTS” (Wyeth, priority 2008, published 2010)
